ChEMBL document CHEMBL2074497, “Involvement of rat organic anion transporter 3 (rOAT3) in cephaloridine-induced nephrotoxicity: in comparison with rOAT1” (Life Sci, 2002)
pIC50, pKi: −log10 of the molar value.

How the values were obtained:
Format in all cases: functional, cell-based
[1] = target: T1, Organic anion transporter 3 (Rattus norvegicus, UniProt Q9R1U7); test: TP_TRANSPORTER: inhibition of Estrone sulfate uptake in OAT3-expressing S2 cells
T1 sequence (Q9R1U7 whole entry): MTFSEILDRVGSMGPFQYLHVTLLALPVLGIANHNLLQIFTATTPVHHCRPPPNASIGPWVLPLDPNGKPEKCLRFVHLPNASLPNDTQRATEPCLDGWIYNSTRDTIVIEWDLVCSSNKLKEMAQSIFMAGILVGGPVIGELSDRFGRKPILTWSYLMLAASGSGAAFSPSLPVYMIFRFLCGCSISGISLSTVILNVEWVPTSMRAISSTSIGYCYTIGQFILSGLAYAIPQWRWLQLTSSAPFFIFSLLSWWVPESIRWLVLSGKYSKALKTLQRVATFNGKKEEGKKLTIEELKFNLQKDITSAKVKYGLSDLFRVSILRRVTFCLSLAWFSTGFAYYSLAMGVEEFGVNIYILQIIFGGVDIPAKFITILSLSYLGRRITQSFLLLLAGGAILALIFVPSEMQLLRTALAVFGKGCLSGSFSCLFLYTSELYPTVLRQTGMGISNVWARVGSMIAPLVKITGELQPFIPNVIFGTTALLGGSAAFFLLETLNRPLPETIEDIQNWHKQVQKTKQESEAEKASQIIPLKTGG

[2] = target: T1, Organic anion transporter 3; test: TP_TRANSPORTER: uptake in OAT3-expressing S2 cells; conditions: mouse
[3] = target: T2, Solute carrier family 22 member 6 (Rattus norvegicus, UniProt O35956); test: TP_TRANSPORTER: inhibition of PAH uptake in OAT1-expressing S2 cells
T2 sequence (O35956 whole entry): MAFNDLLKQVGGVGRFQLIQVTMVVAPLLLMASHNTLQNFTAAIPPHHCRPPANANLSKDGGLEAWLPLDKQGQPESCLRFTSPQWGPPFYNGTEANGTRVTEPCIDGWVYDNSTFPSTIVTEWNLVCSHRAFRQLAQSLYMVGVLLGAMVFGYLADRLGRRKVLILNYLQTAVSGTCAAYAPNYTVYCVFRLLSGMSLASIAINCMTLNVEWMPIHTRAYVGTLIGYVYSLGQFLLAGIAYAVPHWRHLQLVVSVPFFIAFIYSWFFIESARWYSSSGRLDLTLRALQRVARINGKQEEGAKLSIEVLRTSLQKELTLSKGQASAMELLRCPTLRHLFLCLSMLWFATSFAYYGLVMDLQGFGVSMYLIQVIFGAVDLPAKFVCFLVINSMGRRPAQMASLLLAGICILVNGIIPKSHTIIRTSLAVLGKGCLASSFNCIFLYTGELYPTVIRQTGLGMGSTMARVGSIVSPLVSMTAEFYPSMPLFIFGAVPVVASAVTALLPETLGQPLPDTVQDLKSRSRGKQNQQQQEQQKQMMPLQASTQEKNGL

Row | SMILES | pKi [1] | pIC50 [1] | other results
1 | O=C(Cc1cccs1)N[C@@H]1C(=O)N2C(C(=O)[O-])=C(C[n+]3ccccc3)CS[C@H]12 [CEPHALORIDINE] | 2.94 | – | Activity [2]: substrate [+]
2 | Cc1nnc(SCC2=C(C(=O)O)N3C(=O)[C@@H](NC(=O)Cn4cnnn4)[C@H]3SC2)s1 [CEFAZOLIN] | 3.11 | – | –
3 | CO/N=C(\C(=O)N[C@@H]1C(=O)N2C(C(=O)O)=C(COC(C)=O)CS[C@H]12)c1csc(N)n1 [CEFOTAXIME] | – | 3.10 | –
4 | CO/N=C(\C(=O)N[C@@H]1C(=O)N2C(C(=O)O)=C(CSc3nc(=O)c(=O)[nH]n3C)CS[C@H]12)c1csc(N)n1 [CEFTRIAXONE] | – | < 2.70 | –
5 | CCN1CCN(C(=O)N[C@@H](C(=O)N[C@@H]2C(=O)N3C(C(=O)O)=C(CSc4nnnn4C)CS[C@H]23)c2ccc(O)cc2)C(=O)C1=O [CEFOPERAZONE] | 3.17 | – | –

The next lines start with results.

Row | pKi [1] | pIC50 [1] | SMILES | other results
6 | – | 4.05 | Cn1nnnc1SCC1=C(C(=O)O)N2C(=O)[C@@H](NC(=O)[C@H](O)c3ccccc3)[C@H]2SC1 [CEFAMANDOLE] | –
7 | – | 3.20 | CC1=C(C(=O)O)N2C(=O)[C@@H](NC(=O)[C@H](N)c3ccccc3)[C@H]2SC1 [CEPHALEXIN ANHYDROUS] | pIC50 [3]: < 2.70
8 | 4.32 | – | CC(=O)OCC1=C(C(=O)O)N2C(=O)[C@@H](NC(=O)Cc3cccs3)[C@H]2SC1 [CEPHALOTHIN] | –
9 | – | 2.75 | CC1=C(C(=O)O)N2C(=O)[C@@H](NC(=O)[C@H](N)c3ccc(O)cc3)[C@H]2SC1 [CEFADROXIL] | –
